The subject of one experiment is A549. Briefly: Cytotoxicity against Homo sapiens (human) A549 cells assessed as growth inhibition after 48 hr by MTT assay. The class given is functional, cell-based. As to conditions: A549, 48 h.
Take `O=C(Cc1ccc(/C=C/CN2Cc3cc4ccccc4nc3C2=O)cc1)N1CCOCC1`: the IC50 is 46.2 µM.

Regarding `CC(C)N(C(=O)Cc1ccc(/C=C/CN2Cc3cc4ccccc4nc3C2=O)cc1)C(C)C`, the IC50 was determined as 70.1 µM.

As to `O=C(Cc1ccc(/C=C/CN2Cc3cc4ccccc4nc3C2=O)cc1)N1CCN(c2ccccc2)CC1`, the IC50 came to 53.5 µM.

For `O=c1c2ccccc2nc2n1Cc1cc3ccccc3nc1-2` [LUOTONIN A], the IC50 is 61.2 µM.

As to `COc1ccc(N2CCN(C(=O)Cc3ccc(CCCN4Cc5cc6ccccc6nc5C4=O)cc3)CC2)cc1`, the IC50 was determined as 68.8 µM.

Turning to `O=C(Cc1ccc(/C=C/CN2Cc3cc4ccccc4nc3C2=O)cc1)N1CCN(c2ccc([N+](=O)[O-])cc2)CC1`, the IC50 was determined as 43.8 µM.

As for `COc1cccc2c1C(=O)c1c(O)c3c(c(O)c1C2=O)C[C@@](O)(C(=O)CO)C[C@@H]3O[C@H]1C[C@H](N)[C@H](O)[C@H](C)O1` [DOXORUBICIN], the half-maximal inhibitory concentration (IC50) was 24.3 µM.

As for `O=C(Cc1ccc(/C=C/CN2Cc3cc4ccccc4nc3C2=O)cc1)N1CCCCC1`, the half-inhibitory concentration (IC50) was determined as 67.8 µM.

For the molecule `O=C(Cc1ccc(CCCN2Cc3cc4ccccc4nc3C2=O)cc1)N1CCN(c2ccccc2)CC1`, the 50% inhibitory concentration (IC50) stood at 65.4 µM.

Another experiment concerns SK-N-SH. Briefly: Cytotoxicity against Homo sapiens (human) SK-N-SH cells assessed as growth inhibition after 48 hr by MTT assay. The format is functional, cell-based.
Conditions: not given
For orientation: Tetrazolium assays rely on reduction of a dye to a coloured formazan, in cell work by metabolically active cells.
Take `O=C(Cc1ccc(/C=C/CN2Cc3cc4ccccc4nc3C2=O)cc1)N1CCOCC1`: the IC50 was determined as 8.62 µM.

With `CC(C)N(C(=O)Cc1ccc(/C=C/CN2Cc3cc4ccccc4nc3C2=O)cc1)C(C)C`, the IC50 is 43.2 µM.

`O=C(Cc1ccc(/C=C/CN2Cc3cc4ccccc4nc3C2=O)cc1)N1CCN(c2ccccc2)CC1`: the IC50 came to 51.9 µM.

Take `O=c1c2ccccc2nc2n1Cc1cc3ccccc3nc1-2` [LUOTONIN A]: the IC50 was found to be 61.1 µM.

As to `O=C(Cc1ccc(CCCN2Cc3cc4ccccc4nc3C2=O)cc1)N1CCN(c2ccc([N+](=O)[O-])cc2)CC1`, the IC50 came to 40.2 µM.

For the molecule `COc1ccc(N2CCN(C(=O)Cc3ccc(CCCN4Cc5cc6ccccc6nc5C4=O)cc3)CC2)cc1`, the IC50 was determined as 48.9 µM.

In the case of `COc1ccc(N2CCN(C(=O)Cc3ccc(/C=C/CN4Cc5cc6ccccc6nc5C4=O)cc3)CC2)cc1`, the half-inhibitory concentration (IC50) amounted to 56.3 µM.

As to `O=C(O)Cc1ccc(/C=C/CN2Cc3cc4ccccc4nc3C2=O)cc1`, the IC50 was 56.6 µM.

As to `O=C(Cc1ccc(/C=C/CN2Cc3cc4ccccc4nc3C2=O)cc1)N1CCN(c2ccc([N+](=O)[O-])cc2)CC1`, the half-inhibitory concentration (IC50) is 56.2 µM.

With `O=C(Cc1ccc(/C=C/CN2Cc3cc4ccccc4nc3C2=O)cc1)N1CCCCC1`, the half-inhibitory concentration (IC50) is 38.3 µM.

As for `O=C(Cc1ccc(/C=C/CN2Cc3cc4ccccc4nc3C2=O)cc1)N1CCCC1`, the IC50 was 57.2 µM.

For `O=C(Cc1ccc(/C=C/CN2Cc3cc4ccccc4nc3C2=O)cc1)NCCO`, the half-maximal inhibitory concentration (IC50) came to 42.1 µM.

For `O=C(Cc1ccc(CCCN2Cc3cc4ccccc4nc3C2=O)cc1)N1CCN(c2ccccc2)CC1`, the IC50 was 42 µM.

Broadly, the IC50 is the concentration at which inhibition is half-maximal.

The record behind these values is ChEMBL document CHEMBL3046964, “Synthesis of novel building blocks of 1H-pyrrolo[3,4-b]quinolin-3(2H)-one and evaluation of their antitumor activity” (Med Chem Res, 2013).
